Measured values taken from patent publication EP4342890A1, “PLATFORM AND SCAFFOLD FOR FAP TARGETING AGENTS” (Erasmus University Rotterdam Medical Center, priority 2022, dated 2024).

Columns and labels:
[1] = molecular target: T1, FAP (Homo sapiens, UniProt Q12884); assay: In vitro inhibition assay on human FAP (Z-GP-AMC substrate); format: biochemical; settings: enzymatic assay; 20 µM Z-GP-AMC, 20 nM FAP; unit inferred
T1 sequence (Q12884 1-760): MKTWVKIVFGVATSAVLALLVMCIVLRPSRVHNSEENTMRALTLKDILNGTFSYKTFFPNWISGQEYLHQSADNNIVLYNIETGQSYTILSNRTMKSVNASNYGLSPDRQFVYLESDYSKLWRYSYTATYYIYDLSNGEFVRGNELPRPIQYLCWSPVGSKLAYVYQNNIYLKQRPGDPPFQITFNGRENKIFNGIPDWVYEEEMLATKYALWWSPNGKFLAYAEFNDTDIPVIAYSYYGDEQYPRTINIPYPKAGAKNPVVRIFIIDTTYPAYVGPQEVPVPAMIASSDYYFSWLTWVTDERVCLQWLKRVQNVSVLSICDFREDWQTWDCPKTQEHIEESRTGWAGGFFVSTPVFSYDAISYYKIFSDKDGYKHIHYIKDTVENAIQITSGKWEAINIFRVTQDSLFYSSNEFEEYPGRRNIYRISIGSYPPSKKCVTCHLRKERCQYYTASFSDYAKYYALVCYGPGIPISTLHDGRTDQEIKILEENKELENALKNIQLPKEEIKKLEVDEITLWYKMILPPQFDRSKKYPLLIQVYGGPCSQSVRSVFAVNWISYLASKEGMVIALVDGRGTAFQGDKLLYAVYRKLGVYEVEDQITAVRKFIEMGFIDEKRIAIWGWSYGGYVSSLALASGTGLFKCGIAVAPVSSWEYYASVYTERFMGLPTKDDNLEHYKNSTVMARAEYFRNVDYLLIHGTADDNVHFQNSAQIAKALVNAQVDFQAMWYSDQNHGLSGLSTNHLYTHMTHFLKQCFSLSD
Experimental: (§1) Enzymatic activity of human FAP (hFAP) and mouse FAP (mFAP) on the Z-GP-AMC substrate was measured at room temperature on a Hidex microplate reader by monitoring the fluorescence at an excitation wavelength of 360 nm and an emission wavelength of 465 nm. The reaction mixture contained 20 µM substrate, 20 nM FAP, assay buffer (50 mM Tris, 100 mM NaCl, 1 mM EDTA, pH 7.4) and tested compound (serial dilution from 10^-6 to 10^-12) in a total volume of 50 µL.

[2] = molecular target: T2, murine FAP (Mus musculus, UniProt P97321); assay: In vitro inhibition assay on mouse FAP (Z-GP-AMC substrate); format: biochemical; settings: enzymatic assay; 20 µM Z-GP-AMC, 20 nM FAP; unit inferred
T2 sequence (P97321 1-761): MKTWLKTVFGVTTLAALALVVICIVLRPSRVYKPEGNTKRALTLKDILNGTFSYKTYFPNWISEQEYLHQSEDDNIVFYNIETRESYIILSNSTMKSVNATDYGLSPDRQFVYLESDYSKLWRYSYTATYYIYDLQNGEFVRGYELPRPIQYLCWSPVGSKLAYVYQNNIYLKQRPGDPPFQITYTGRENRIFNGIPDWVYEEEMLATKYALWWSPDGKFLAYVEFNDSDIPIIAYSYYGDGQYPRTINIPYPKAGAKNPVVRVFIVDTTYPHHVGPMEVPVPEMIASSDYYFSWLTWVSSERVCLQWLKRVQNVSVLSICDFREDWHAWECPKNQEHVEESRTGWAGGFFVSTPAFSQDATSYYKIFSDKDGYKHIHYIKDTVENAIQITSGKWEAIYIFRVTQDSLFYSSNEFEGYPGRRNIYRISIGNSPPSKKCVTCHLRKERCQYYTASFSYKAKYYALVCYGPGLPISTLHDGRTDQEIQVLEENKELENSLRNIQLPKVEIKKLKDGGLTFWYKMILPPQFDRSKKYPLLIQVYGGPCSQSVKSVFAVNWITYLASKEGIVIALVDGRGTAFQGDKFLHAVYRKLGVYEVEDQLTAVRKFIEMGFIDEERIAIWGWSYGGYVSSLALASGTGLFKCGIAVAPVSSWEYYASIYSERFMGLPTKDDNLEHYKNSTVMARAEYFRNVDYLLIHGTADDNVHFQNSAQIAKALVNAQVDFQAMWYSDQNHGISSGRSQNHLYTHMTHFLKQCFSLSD
Experimental: as §1

[3] = molecular target: T1, FAP; assay: Competitive binding assay against [111In]In-FAPI-46 in HT-1080.hFAP cells; design: expressed in transfected cells; host or cells: HT-1080.hFAP cells; settings: competition with [111In]In-FAPI-46 in HT-1080.hFAP cells, 37 °C, 1 h; unit inferred
Experimental: The U-87 MG glioblastoma was cultured at 37 °C and 5% CO2 in Dulbecco's Modified Eagle Medium (DMEM) supplemented with 10 % (v/v) fetal calf serum. HT-1080.hFAP cells were kept in culture in DMEM medium supplemented with fetal bovine serum (10%, FBS) and antibiotic antimycotic (1%, AA) at 37 °C and 5% CO2. For passaging, cells were detached using Trypsin-EDTA 0.05% when reaching 90% confluence and re-seeded at a dilution of 1:4.
Competition binding experiments were conducted by incubation of the [^111In]In-FAPI-46 radioligand with increasing concentrations of eFAP compound in HT-1080.hFAP cells at 37 °C for 1 h. Cells were then washed three times with binding buffer and lysed. The cell-associated radioactivity was measured in a γ-counter. The IC50 values were calculated by fitting the data by non-linear regression using GraphPad Prism.

CN(CCCN1CCN(C(=O)CN2CCN(CC(=O)O)CCN(CC(=O)O)CCN(CC(=O)O)CC2)CC1)c1ccc2nccc(C(=O)NCC(=O)N3CC(F)(F)C[C@H]3C#N)c2c1 [FAPI-46, reference compound]
IC50 [1]: 2.7 ± 1.7 nM | IC50 [2]: 15 ± 2 nM | IC50 [3]: 1.6 ± 0.3 nM
